Assay results taken from patent publication US4540691A, “Dopamine agonists and use thereof” (Nelson Research & Development Co., priority 1984, dated 1985).
“Also recorded” adds a separate entry of the source.

Tests used:
DA receptor = assay: Radioligand binding assay: displacement of ^3 H-5,6-dihydroxy-N,N-dipropyl-2-aminotetralin (DA receptor agonist) from homogenates of rat corpus striatum; details: for IC50: mean of 3 independent experiments each in triplicate, 10^-11 to 10^-5 M, read-out: IC50 (concentration of drug required to inhibit the specific binding by 50%)
Description: The ability of the above compounds to displace the specific binding of ^3 H-5,6-dihydroxy-N,N-dipropyl-2-aminotetralin, a potent DA receptor agonist (Feenstra et al., Life Sci., 32, 1313 (1983)) to homogenates of rat corpus striatum was studied.
The assay was performed essentially according to the method of Leysen and Gommeran J. Neurochem. 36, 201 (1981) for ^3 H-apomorphine binding.
The IC50 is the concentration of drug required to inhibit the specific binding by 50%. The results are presented as the mean values of 3 independent experiments each analyzed in triplicate over the concentration range 10^-11 to 10^-5 M.

[1] = test system: presynaptic dopamine receptors; assay: Presynaptic DA activity in the GBL model: counteracting GBL-induced rise in striatal DOPA levels; type: in vivo, rat; details: for % Reversal vs. GBL group / DOPA (striatal level): 0.2 μmol/kg; for % Reversal vs. GBL group: GBL + NSD 1015 group = 0, NSD 1015 group = 100; for DOPA (striatal level): GBL model, NSD 1015 as decarboxylase inhibitor
Description: The ability of a dopamine agonist to counteract the gamma-butyrolactone (GBL) induced rise in DOPA levels in the rat striatum is an indication of its activity at presynaptic dopamine receptors. (Walters and Roth, 1976 Arch. Pharmacol., 296, 5).
The experiments were performed in rats according to the method of Walters and Roth (ibid). The striatal levels of DOPA were determined using the method of Westerink and Mulder (1981 J. Neurochem. 36, 1449). NSD 1015 was used as decarboxylase inhibitor.

dopaminergic = details: literature background; cited from earlier work
[2] = test system: adrenergic and serotonergic; details: literature background; cited from earlier work
[3] = literature background; cited from earlier work
[4] = test system: homovanillic acid, HVA (corpus striatum); assay: Effect on dopamine metabolism: lowering of striatal HVA levels; type: in vivo, Female Wistar rats; details: for HVA % control / HVA content of corpus striatum: injected, 60 min, mean ± S.E.M.
Description: Dopamine agonists are known to produce a lowering of the striatal levels of one of the main metabolites of dopamine, homovanillic acid, HVA, (Feenstra et al., 1983 Arch. Pharmacol., 324, 108).
Female Wistar rats (160-180g) were injected with the drugs under test dissolved in saline and were then decapitated 60 min later. The HVA content of the corpus striatum was determined according to the method of Westerink and Mulder (J. Neurochem., 1981 36, 1449).

dopamine receptor = assay: Dopamine receptor agonist activity, overall conclusion from various tests; details: pre- and post-synaptic dopaminergic tests
Description: The dopaminergic activity of three analogues (A,B,C) was evaluated in comparison with the indolic structural analogue RU 29717 (Nedelec et al., 1983, J. Med. Chem., 26, 522) in three test systems. Compounds B and C are within the scope of the present invention.

Row | Structure (SMILES) | IC50 (DA receptor) [nM] | % Reversal vs. GBL group [1] [%] | DOPA (striatal level) [1] [µg/g] | dopaminergic agonist activity (in words) (dopaminergic) | adrenergic and serotonergic activity (in words) [2] | emetic activity (in words) [3] | HVA % control ([4]; 0.2 μmol/kg) [% control] | HVA content of corpus striatum ([4]; 0.2 μmol/kg) [µg/g] | HVA % control ([4]; 0.4 μmol/kg) [% control] | HVA content of corpus striatum ([4]; 0.4 μmol/kg) [µg/g] | potency in GBL model (conclusion in words) ([1]; conclusion) | dopamine agonist activity (general conclusion in words) (dopamine receptor) | activity on HVA levels (conclusion in words) ([4]; conclusion) | potency in binding assay (conclusion in words) (DA receptor)
1 | CN1CCc2cccc3c2[C@H]1Cc1ccc(O)c(O)c1-3 [Apomorphine, reference compound] | 3.2 |  |  |  |  |  |  |  |  |  |  |  |  | 
2 | CCCN1CCO[C@@H]2c3cccc4[nH]cc(c34)C[C@H]21 [RU 29717, N-PROPYL-9-OXAERGOLINE, reference compound] | 3 | 88.4 | 2.30 ± 0.16 | extremely potent direct acting dopaminergic agonist, comparing favorably with pergolide | has adrenergic and serotonergic activity | Its activity as an emetic is a significant problem | 51.0 ± 4.1 | 0.50 ± 0.04 | 46.9 ± 2.0 | 0.46 ± 0.02 |  |  |  | 
3 | CCCN1CCOC2c3cc(O)ccc3CCC21 (centres unmarked) [Compound C] | 2.8 | 94.6 | 2.08 ± 0.12 |  |  |  | 63.3 ± 4.1 | 0.62 ± 0.04 | 48.0 ± 1.0 | 0.47 ± 0.01 | slightly more potent than RU 29717 | useful levels of dopamine agonist activity; also recorded: as active as the known DA agonist RU 29717 | comparable in activity to RU 29717 | 
4 | CCCN1CCOC2c3cccc(O)c3CCC21 (centres unmarked) [Compound B] | 80 | 17.3 | 4.80 ± 0.37 |  |  |  |  |  | 98.0 ± 12.2 | 0.96 ± 0.12 |  | useful levels of dopamine agonist activity |  | some activity
5 | CCCN1CCOC2c3ccccc3CCC21 (centres unmarked) [Compound A] | 110 | 4.5 | 5.25 ± 0.09 |  |  |  |  |  | 91.8 ± 2.0 | 0.90 ± 0.02 |  | significantly less active |  | the least potent
